Results on 27 molecules are retold here after ChEMBL document CHEMBL4725304, “Synthesis and evaluations of selective COX-2 inhibitory effects: Benzo[d]thiazol analogs” (Bioorg Med Chem Lett, 2020).

Activity calls are given as the source filed them. The rule behind the calls is not given here.

Assay [1] concerns the target T1, Prostaglandin G/H synthase 2 (Homo sapiens, UniProt P35354).
T1 sequence (P35354 whole entry): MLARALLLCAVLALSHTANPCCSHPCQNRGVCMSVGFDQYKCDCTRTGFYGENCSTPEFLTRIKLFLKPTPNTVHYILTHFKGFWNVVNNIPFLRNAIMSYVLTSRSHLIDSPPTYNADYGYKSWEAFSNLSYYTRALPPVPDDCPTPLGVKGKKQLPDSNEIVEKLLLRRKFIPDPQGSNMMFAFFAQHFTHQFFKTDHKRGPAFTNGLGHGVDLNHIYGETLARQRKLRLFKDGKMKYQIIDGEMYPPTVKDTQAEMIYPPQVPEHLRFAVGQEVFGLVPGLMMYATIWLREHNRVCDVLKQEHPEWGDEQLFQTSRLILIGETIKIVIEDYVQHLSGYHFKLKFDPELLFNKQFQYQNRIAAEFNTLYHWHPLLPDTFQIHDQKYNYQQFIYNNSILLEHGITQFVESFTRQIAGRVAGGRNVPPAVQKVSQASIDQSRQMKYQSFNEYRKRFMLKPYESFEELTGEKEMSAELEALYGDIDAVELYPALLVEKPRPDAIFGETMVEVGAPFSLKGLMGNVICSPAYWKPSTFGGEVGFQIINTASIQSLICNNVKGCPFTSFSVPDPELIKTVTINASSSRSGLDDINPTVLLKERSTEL
The assay is described as follows: Inhibition of COX2 (unknown origin).

In assay [2] the test system is Mus musculus. The assay is described as follows: Analgesic activity in mouse assessed as reduction in acetic acid-induced abdominal writhing at 100 mg/kg, ip relative to control. In kind it is functional. (In general: An intraperitoneal irritant provokes the stretching counted in writhing tests.)
Assay [3] addresses Prostaglandin G/H synthase 1 (Homo sapiens, UniProt P23219). The assay is described as follows: Inhibition of COX1 (unknown origin). Type of assay: single protein.
Assay [4] concerns Mus musculus. The assay is described as follows: Antiinflammatory activity in mouse assessed as xylene-induced ear edema at 100 mg/kg, ip administered prior to xylene stimulation and measured after 1 hr (reference value: 2.05 +/- 0.40 mg). In kind it is functional.
The species named for another assay is Homo sapiens. The assay is described as follows: Selectivity index, ratio of IC50 for COX1 (unknown origin) to IC50 for COX2 (unknown origin).
Assay [5] relates to Mus musculus. The assay is described as follows: Antiinflammatory activity in mouse assessed as reduction in xylene-induced ear edema at 100 mg/kg, ip administered after prior to xylene stimulation and measured after 1 hr relative to control. Type of assay: functional.
A further assay concerns Rattus norvegicus. The assay is described as follows: Antiinflammatory activity against carrageenan-induced paw edema in rat assessed as inhibition of paw edema at 100 mg/kg, ip administered at 1 hr prior to carrageenan challenge and measured after 4 hrs by electronic-onkographic analysis. Type of assay: functional. Conditions: time 5 hrs. On the technique in general: The carrageenan paw model is a standard test of acute inflammation.

Prostaglandin G/H synthase 1, sequence (P23219 whole entry): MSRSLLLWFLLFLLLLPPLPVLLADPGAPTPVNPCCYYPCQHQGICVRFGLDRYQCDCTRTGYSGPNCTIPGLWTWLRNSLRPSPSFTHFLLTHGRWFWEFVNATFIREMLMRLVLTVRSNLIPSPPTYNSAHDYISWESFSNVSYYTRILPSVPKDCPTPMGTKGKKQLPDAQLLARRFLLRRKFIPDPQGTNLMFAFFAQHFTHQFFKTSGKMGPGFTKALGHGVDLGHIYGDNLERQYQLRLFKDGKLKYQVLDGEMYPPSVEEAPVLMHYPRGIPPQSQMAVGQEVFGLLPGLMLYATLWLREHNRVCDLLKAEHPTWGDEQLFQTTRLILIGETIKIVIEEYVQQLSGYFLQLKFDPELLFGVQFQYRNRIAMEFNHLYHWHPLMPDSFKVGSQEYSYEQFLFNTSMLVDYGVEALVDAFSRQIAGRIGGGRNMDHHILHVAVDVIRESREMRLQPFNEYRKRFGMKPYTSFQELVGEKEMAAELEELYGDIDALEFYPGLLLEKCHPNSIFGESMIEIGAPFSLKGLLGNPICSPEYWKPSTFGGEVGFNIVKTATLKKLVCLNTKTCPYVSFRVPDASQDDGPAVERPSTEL

As usually defined, the IC50 is the concentration that inhibits the measured activity by half. A low value points to inhibition by little substance. As usually defined, the inhibition in vivo is the percentage by which the read-out fell short of the control. Regarding `Brc1ccc(OCCOc2nc3ccccc3s2)cc1`, the figures for the IC50 in assay [1] and in assay [3] were 500 nM and 5320 nM, respectively. In addition, the inhibition in vivo at 100 mg/kg in the assay with Mus musculus [2] was 68.6%; with Mus musculus [5] it was 94.6%. Moreover, the Activity with Mus musculus [4] was found to be 0.11 mg. In the assay filed under Homo sapiens, the Ratio IC50 was 10.6.
Consider `c1ccc(OCCOc2nc3ccccc3s2)cc1`, for which the inhibition entry in the assay with Mus musculus [2] was “inactive”. The Activity in the assay with Mus musculus [4] came to 1.9 mg. Besides, in the assay on Mus musculus [5], the inhibition in vivo at 100 mg/kg stood at 7.31%.
On to `COc1ccc(COc2nc3ccccc3s2)cc1`, for which the inhibition result with Mus musculus [2] was “inactive”. Also, the Activity in the assay on Mus musculus [4] worked out at 2 mg. The inhibition in vivo at 100 mg/kg in the assay with Mus musculus [5] stood at 2.43%.
Take `Fc1ccc(OCCOc2nc3ccccc3s2)cc1`: the figures for the inhibition in vivo at 100 mg/kg in the assay with Mus musculus [2] and in the assay on Mus musculus [5] were 99.9% and 72.7%, respectively. In the assay with Mus musculus [4], the Activity was 0.56 mg.
Consider `Brc1ccc(OCCOc2nc3ccccc3s2)c(Br)c1`, for which the IC50 in assay [1] was 360 nM; in assay [3], 5080 nM. The inhibition in vivo at 100 mg/kg in the assay on Mus musculus [2] turned out to be 68.6%; in the assay on Mus musculus [5], 87.3%. For the same molecule, the Activity with Mus musculus [4] turned out to be 0.26 mg. Besides, in the assay filed under Homo sapiens, the Ratio IC50 came out at 14.1.
Take `Clc1ccccc1COc1nc2ccccc2s1`: the inhibition result in the assay with Mus musculus [2] is “inactive”. Further, the Activity in the assay on Mus musculus [4] was determined as 1.75 mg. Moreover, the inhibition in vivo at 100 mg/kg in the assay on Mus musculus [5] was 14.6%.
Consider `FC(F)(F)c1ccc(COc2nc3ccccc3s2)cc1`, for which the values for the inhibition in vivo at 100 mg/kg in the assay on Mus musculus [2] and with Mus musculus [5] were 99.6% and 12.2%, respectively. Besides, the Activity in the assay with Mus musculus [4] amounted to 1.8 mg.
As for `O=[N+]([O-])c1ccc(COc2nc3ccccc3s2)cc1`, the inhibition in vivo at 100 mg/kg with Mus musculus [2] is 97%; in the assay on Mus musculus [5] it was 4.39%. Moreover, in the assay with Mus musculus [4], the Activity came to 1.96 mg.
As to `FC(F)(F)c1ccccc1COc1nc2ccccc2s1`, the inhibition entry in the assay on Mus musculus [2] is “inactive”. Moreover, in the assay with Mus musculus [4], the Activity is 2.03 mg. In addition, in the assay with Mus musculus [5], the inhibition in vivo at 100 mg/kg amounted to 9.75%.
Turning to `Clc1ccc(COc2nc3ccccc3s2)cc1`, the IC50 amounted to 770 nM in assay [1] and 5550 nM in assay [3]. The inhibition in vivo at 100 mg/kg with Mus musculus [2] was determined as 51.9%; with Mus musculus [5] it was 82.9%. For the same molecule, the Activity in the assay with Mus musculus [4] came to 0.35 mg. Further, in the assay listed under Homo sapiens, the Ratio IC50 was 7.2.
For `COc1ccc2c(c1)c(CC(=O)O)c(C)n2C(=O)c1ccc(Cl)cc1` [INDOMETHACIN], the Activity in the assay on Mus musculus [4] was found to be 0.36 mg. Further, the inhibition in vivo at 100 mg/kg with Mus musculus [5] came out at 82.4%.
As for `Fc1ccc(COc2nc3ccccc3s2)cc1`, the values for the IC50 in assay [1] and in assay [3] were 370 nM and 6200 nM, respectively. Besides, the inhibition in vivo at 100 mg/kg in the assay with Mus musculus [2] was found to be 51.9%; in the assay with Mus musculus [5] it was 90.7%. Also, the Activity in the assay with Mus musculus [4] is listed as 0.19 mg. The Ratio IC50 in the assay listed under Homo sapiens was found to be 16.8.
Consider `N#Cc1ccc(COc2nc3ccccc3s2)cc1`, for which the inhibition entry with Mus musculus [2] is “inactive”. Also, the Activity in the assay on Mus musculus [4] was 1.79 mg. Moreover, the inhibition in vivo at 100 mg/kg with Mus musculus [5] was 12.7%.
On to `Fc1cccc(COc2nc3ccccc3s2)c1`, for which the IC50 in assay [1] came out at 280 nM; in assay [3] it was 5220 nM. For the same molecule, the figures for the inhibition in vivo at 100 mg/kg with Mus musculus [2] and with Mus musculus [5] were 51.9% and 86.8%, respectively. Moreover, the Activity with Mus musculus [4] was 0.27 mg. For the same molecule, the Ratio IC50 in the assay listed under Homo sapiens was determined as 18.6.
On to `Fc1ccc(OCCOc2nc3ccccc3s2)c(F)c1`, for which the inhibition in vivo at 100 mg/kg is 68.6% in the assay with Mus musculus [2] and 56.1% in the assay on Mus musculus [5]. In the assay with Mus musculus [4], the Activity was determined as 0.9 mg.
In the same order, the values of `Cc1cc(C)cc(COc2nc3ccccc3s2)c1` are 51.9%, 0.5% and 2.04 mg.
Regarding `O=C(c1ccc([N+](=O)[O-])cc1)c1nc2ccc(F)c(Nc3ccccc3[N+](=O)[O-])c2s1`, in the assay on Rattus norvegicus, the inhibition in vivo at 100 mg/kg came to 78%.
`Clc1ccc(OCCOc2nc3ccccc3s2)cc1`: the inhibition in vivo at 100 mg/kg came to 68.6% in the assay on Mus musculus [2] and 66.3% with Mus musculus [5]. In the assay with Mus musculus [4], the Activity was 0.69 mg.
The corresponding values for `Fc1ccccc1COc1nc2ccccc2s1` are 51.9%, 74.6% and 0.52 mg.
The corresponding values for `Brc1ccccc1COc1nc2ccccc2s1` are 51.9%, 75.6% and 0.5 mg.
In the same order, the values of `COc1cc(COc2nc3ccccc3s2)cc(OC)c1` are 51.9%, 44.4% and 1.14 mg.
In the case of `Brc1cccc(COc2nc3ccccc3s2)c1`, the inhibition in vivo at 100 mg/kg with Mus musculus [2] turned out to be 51.9%; with Mus musculus [5], 77.6%. Further, the Activity with Mus musculus [4] turned out to be 0.46 mg.
As to `Brc1ccc(COc2nc3ccccc3s2)cc1`, the inhibition in vivo at 100 mg/kg stood at 51.9% in the assay on Mus musculus [2] and 78% in the assay on Mus musculus [5]. For the same molecule, the Activity in the assay with Mus musculus [4] stood at 0.45 mg.
Regarding `Clc1cccc(COc2nc3ccccc3s2)c1`, the values for the inhibition in vivo at 100 mg/kg with Mus musculus [2] and in the assay on Mus musculus [5] were 51.9% and 80%, respectively. Besides, the Activity in the assay with Mus musculus [4] came out at 0.41 mg.
In the same order, the values of `c1ccc(COc2nc3ccccc3s2)cc1` are 51.9%, 68.8% and 0.64 mg.
As to `Cc1ccc(COc2nc3ccccc3s2)cc1`, in the assay on Mus musculus [2], the inhibition result is “inactive”. Besides, the Activity in the assay with Mus musculus [4] came to 2.01 mg. Moreover, in the assay on Mus musculus [5], the inhibition in vivo at 100 mg/kg was 1.95%.
As for `Clc1ccc(OCCOc2nc3ccccc3s2)c(Cl)c1`, the IC50 in assay [1] was 410 nM; in assay [3], 4280 nM. Besides, the inhibition in vivo at 100 mg/kg turned out to be 68.6% in the assay with Mus musculus [2] and 85.4% in the assay on Mus musculus [5]. In the assay on Mus musculus [4], the Activity was determined as 0.3 mg. In addition, the Ratio IC50 in the assay listed under Homo sapiens is 10.4.
